The values that follow come from patent US10208037B2, “Toll-like receptor-7 and -8 modulatory 1H imidazoquinoline derived compounds” (The University of Kansas, priority 2011, dated 2019).

The test system of data set [1] is human PBMCs. The data set can be described thus: Immunoassays for IFN-α, IFN-γ, IL-12 and IL-18 in human PBMCs. The data set is classed as cell-based. As for the experimental part: Fresh human peripheral blood mononuclear cells (PBMC) were isolated from human blood obtained by venipuncture with informed consent and as per institutional guidelines on Ficoll-Hypaque gradients as described elsewhere.^53 Aliquots of PBMCs (10^5 cells in 100 µL/well) were stimulated for 12 h with graded concentrations of test compounds. Supernatants were isolated by centrifugation, diluted 1:20, and were assayed in triplicates using a high-sensitivity analyte-specific ELISA kits (PBL Interferon Source, Piscataway, N.J. and R&D Systems, Inc., Minneapolis, Minn.).

A further data set concerns outbred CF-1 mice. The data set is described as follows: Immunization of CF-1 mice with bovine α-lactalbumin, antibody ELISA. Conditions: relative to α-lactalbumin alone; boost Day 14, bled Day 21. The data set is classed as in vivo. As for the experimental part: FIGS. 10A-10D are graphs illustrating immunoglobulin profiles in outbred CF-1 mice immunized on Day 0 with 50 μg/animal of α-lactalbumin, or α-lactalbumin covalently coupled with 5 equivalents of 8, or α-lactalbumin mixed with 5 equivalents of 7d. Animals (5 per cohort) were boosted once on Day 14 exactly as mentioned above, and bled on Day 21. α-lactalbumin-specific immunoglobulin levels were quantified by standard antibody-capture ELISA, performed in liquid handler-assisted 384-well format.
FIG. 11 is a graph illustrating affinity IgG ELISA showing antibody titer as a function of chaotrope (NaSCN) concentration. IgG titers on the ordinate axis were calculated from absorbance values at 0.25 (which corresponds to […] above that of naïve controls).
All experiments were performed in accordance with animal care protocols approved by the University of Kansas IACUC Committee. […]
A precision 2000 liquid handler (Bio-Tek, Winooski, Vt.) was used for all serial dilution and reagent addition steps, and a Bio-Tek ELx405 384-well plate washer was employed for plate washes; 100 mM phosphate-buffered saline (PBS) pH 7.4, containing 0.1% Tween-20 was used as wash buffer. […] Plates were then read at 450 nm using a SpectraMax M4 device (Molecular Devices, Sunnyvale, Calif.). […]
A general note: An ELISA detects its analyte on a solid surface through an enzyme-linked reagent.

A further data set in a line: Aqueous solubility. Type of data set: physicochemical.
The next data set deals with rabbits. The data set is described as follows: Rabbit immunization model using bovine α-lactalbumin as model subunit vaccine. The conditions noted are these: in vivo. From the text: FIG. 18 illustrates ratios of Immune-1/pre-immune (after primary vaccination) and Immune-2/pre-immune (after Boost-1) anti-α-lactalbumin IgG titers in rabbits. FIGS. 19A and 19B are graphs illustrating TLR7 and TLR8 agonistic activities of the imidazoquinoline dimers in human TLR-specific reporter gene assays.
FIG. 27 illustrates ratios of immune-1/pre-immune (after primary vaccination) and Immune-2/pre-immune (after Boost-1) anti-α-lactalbumin IgG titers in rabbits using the hybrids as adjuvants. Also shown are the IMDQ (7d) and PAM2CS, as well as IMDQ (7d)+PAM2CS mixture controls.

The next data set deals with T1, TLR7 (Homo sapiens, UniProt Q9NYK1).
T1 construct: expressed in transfected cells; host or cells: HEK293 (HEK-Blue-7 cells)
T1 sequence (Q9NYK1 27-1049): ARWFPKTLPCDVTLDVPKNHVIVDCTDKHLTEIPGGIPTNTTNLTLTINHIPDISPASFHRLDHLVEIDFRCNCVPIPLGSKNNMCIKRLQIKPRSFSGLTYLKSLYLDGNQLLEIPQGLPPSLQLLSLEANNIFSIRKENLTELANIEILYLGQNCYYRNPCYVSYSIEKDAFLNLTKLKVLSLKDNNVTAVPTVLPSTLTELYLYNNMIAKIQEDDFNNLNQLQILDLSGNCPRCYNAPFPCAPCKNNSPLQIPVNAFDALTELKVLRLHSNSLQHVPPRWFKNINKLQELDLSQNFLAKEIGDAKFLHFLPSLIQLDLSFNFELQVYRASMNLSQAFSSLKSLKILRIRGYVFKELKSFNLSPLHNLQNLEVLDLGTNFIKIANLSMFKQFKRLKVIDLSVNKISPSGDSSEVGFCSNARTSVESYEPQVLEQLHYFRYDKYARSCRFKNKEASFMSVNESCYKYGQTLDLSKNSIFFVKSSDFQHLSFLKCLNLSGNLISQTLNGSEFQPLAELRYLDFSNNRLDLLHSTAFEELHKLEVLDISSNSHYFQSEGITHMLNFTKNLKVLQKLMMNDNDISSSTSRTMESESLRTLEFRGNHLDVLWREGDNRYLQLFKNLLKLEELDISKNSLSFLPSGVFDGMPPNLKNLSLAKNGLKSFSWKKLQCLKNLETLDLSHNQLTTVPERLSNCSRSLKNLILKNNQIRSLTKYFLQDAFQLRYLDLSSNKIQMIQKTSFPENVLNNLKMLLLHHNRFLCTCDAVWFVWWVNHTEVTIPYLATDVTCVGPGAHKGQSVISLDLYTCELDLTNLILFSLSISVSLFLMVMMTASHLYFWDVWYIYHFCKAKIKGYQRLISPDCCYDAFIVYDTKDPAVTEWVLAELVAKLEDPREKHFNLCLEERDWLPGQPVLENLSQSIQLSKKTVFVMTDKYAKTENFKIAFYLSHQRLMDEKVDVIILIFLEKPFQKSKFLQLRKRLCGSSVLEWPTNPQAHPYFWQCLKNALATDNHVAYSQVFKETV
The data set is described as follows: TLR7 reporter gene assay (NF-κB induction, HEK-Blue-7 cells), agonism. The data set is classed as cell-based. The text has this: (§1) NF-κB induction: The induction of NF-κB was quantified using HEK-Blue-7 cells and HEK-Blue-8 cells as previously described by us.^8,24 HEK293 cells were stably transfected with human TLR7 (or human TLR8), MD2, and secreted alkaline phosphatase (sAP), and were maintained in HEK-Blue™ Selection medium containing zeocin and normocin. Stable expression of secreted alkaline phosphatase (sAP) under control of NF-κB/AP-1 promoters is inducible by the TLR7 (or TLR8) agonists, and extracellular sAP in the supernatant is proportional to NF-κB induction. HEK-Blue cells were incubated at a density of […] in a volume of 80 μL/well, in 384-well, flat-bottomed, cell culture-treated microtiter plates until confluency was achieved, and subsequently graded concentrations of stimuli. sAP was assayed spectrophotometrically using an alkaline phosphatase-specific chromogen (present in HEK-detection medium as supplied by the vendor) at 620 nm.
(§2) The induction of NF-κB was quantified using HEK-Blue-3, HEK-Blue-7 and HEK-Blue-8 cells as previously described by us.^8,24,51 HEK293 cells were stably transfected with human TLR3 (or human TLR7 or human TLR8), MD2, and secreted alkaline phosphatase (sAP), and were maintained in HEK-Blue™ Selection medium containing zeocin and normocin. Stable expression of secreted alkaline phosphatase (sAP) under control of NF-κB/AP-1 promoters is inducible by the TLR3 (or TLR7 or TLR8) agonists, and extracellular sAP in the supernatant is proportional to NF-κB induction. HEK-Blue cells were incubated at a density of ˜10^5 cells/ml in a volume of 80 μl/well, in 384-well, flat-bottomed, cell culture-treated microtiter plates until confluency was achieved, and subsequently graded concentrations of stimuli. sAP was assayed spectrophotometrically using an alkaline phosphatase-specific chromogen (present in HEK-detection medium as supplied by the vendor) at 620 nm.

The target of the next data set is T2, TLR8 (Homo sapiens, UniProt Q9NR97).
T2 construct: expressed in transfected cells; host or cells: HEK293 (HEK-Blue-8 cells)
T2 sequence (Q9NR97 27-1041): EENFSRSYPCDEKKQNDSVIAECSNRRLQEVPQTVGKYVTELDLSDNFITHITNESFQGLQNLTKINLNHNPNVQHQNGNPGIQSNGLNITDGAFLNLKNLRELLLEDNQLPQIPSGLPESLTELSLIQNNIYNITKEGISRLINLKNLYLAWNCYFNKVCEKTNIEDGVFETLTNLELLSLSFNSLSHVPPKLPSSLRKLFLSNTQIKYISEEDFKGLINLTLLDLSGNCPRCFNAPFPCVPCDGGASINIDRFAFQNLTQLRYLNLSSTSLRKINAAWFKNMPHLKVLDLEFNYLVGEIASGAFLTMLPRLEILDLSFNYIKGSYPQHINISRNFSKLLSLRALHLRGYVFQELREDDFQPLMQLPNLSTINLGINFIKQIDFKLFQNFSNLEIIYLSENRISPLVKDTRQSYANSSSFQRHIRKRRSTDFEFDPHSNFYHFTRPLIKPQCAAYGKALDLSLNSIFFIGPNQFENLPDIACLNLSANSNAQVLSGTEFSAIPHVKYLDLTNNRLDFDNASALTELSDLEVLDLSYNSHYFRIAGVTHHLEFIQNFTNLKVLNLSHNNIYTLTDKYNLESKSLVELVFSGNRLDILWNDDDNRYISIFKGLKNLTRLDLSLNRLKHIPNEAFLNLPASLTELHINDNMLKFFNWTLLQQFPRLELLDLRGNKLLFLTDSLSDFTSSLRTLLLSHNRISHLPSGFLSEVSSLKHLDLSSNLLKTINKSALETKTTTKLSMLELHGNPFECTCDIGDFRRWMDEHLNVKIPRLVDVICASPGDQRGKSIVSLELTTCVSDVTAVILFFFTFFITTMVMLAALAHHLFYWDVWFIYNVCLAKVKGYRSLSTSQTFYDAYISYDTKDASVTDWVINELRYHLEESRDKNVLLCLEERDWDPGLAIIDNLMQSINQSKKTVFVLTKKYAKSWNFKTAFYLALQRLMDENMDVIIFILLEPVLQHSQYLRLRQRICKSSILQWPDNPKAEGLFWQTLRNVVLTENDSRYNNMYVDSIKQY
The data set can be described thus: TLR8 reporter gene assay (NF-κB induction, HEK-Blue-8 cells), agonism. The data set is classed as cell-based.
Description: as §1, §2
A general note: In a reporter assay the amount or activity of a reporter protein is the signal.

Data set [2] relates to human PBMCs. The data set can be described thus: Proinflammatory cytokine induction in human PBMCs. Type of data set: cell-based. As for the experimental part:
Aliquots (10^6 cells in 100 μL) of hPBMCs isolated from blood obtained from healthy human donors after informed consent by conventional Ficoll-Hypaque gradient centrifugation were stimulated for 12 h with graded concentrations of test compounds. The supernatant was isolated by centrifugation, diluted 1:20, and cytokines and chemokines were assayed in triplicate using analyte-specific cytokine/chemokine bead array assays as reported by us previously.^74

`CCCCc1nc2c(N)nc3ccccc3c2n1Cc1ccc(CN)cc1` [Compound 7d, 1-(4-(Aminomethyl)benzyl)-2-butyl-1H-imidazo[4,5-c]quinolin-4-amine]: the “Th1 bias (induction of IFN-α, IFN-γ, IL-12, IL-18)” value with human PBMCs [1] is “prominent Th1 bias”. Further, the α-lactalbumin-specific antibody titers entry in the data set with outbred CF-1 mice is on record as “dramatic enhancements in antibody titers”. In addition, in the data set “Aqueous solubility”, the “Aqueous solubility (in words)” value is listed as “excellent”.
As for `CCCCc1nc2c(N)nc3ccccc3c2n1Cc1ccc(CNC(=O)Cn2cc(CN(CCN(CCN(Cc3cn(CC(=O)NCc4ccc(Cn5c(CCCC)nc6c(N)nc7ccccc7c65)cc4)nn3)Cc3cn(CC(=O)NCc4ccc(Cn5c(CCCC)nc6c(N)nc7ccccc7c65)cc4)nn3)CCN(Cc3cn(CC(=O)NCc4ccc(Cn5c(CCCC)nc6c(N)nc7ccccc7c65)cc4)nn3)Cc3cn(CC(=O)NCc4ccc(Cn5c(CCCC)nc6c(N)nc7ccccc7c65)cc4)nn3)Cc3cn(CC(=O)NCc4ccc(Cn5c(CCCC)nc6c(N)nc7ccccc7c65)cc4)nn3)nn2)cc1` [Compound 43], the “Adjuvantic activity, anti-α-lactalbumin IgG titers in rabbits” value in the data set with rabbits is “better than 7d”. Besides, the “IFN-γ induction (in words)” value with human PBMCs [1] is “selective and complete loss of TLR8-associated IFN-γ”. In addition, the “TLR7-agonistic activity (in words)” value on TLR7 was “retaining in large measure the TLR7-agonistic activity”. The “TLR8-agonistic activity (in words)” value at TLR8 is recorded as “loss of TLR8-stimulatory activity”. In the data set with human PBMCs [2], the “Proinflammatory cytokine induction (in words)” value is “absence of proinflammatory cytokine induction”.
